Test results from paper PMC11279807, “Modulation of the Antimelanoma Activity Imparted to Artemisinin Hybrids by the Monoterpene Counterpart” (Molecules, 2024).

What was measured:
melanoma = details: metastatic melanoma drug; cited from earlier work
WM266 [1] = assay: Cell viability assay in the presence or absence of DFO on WM266; assay type: cell-based; details: Homo sapiens, treatment time 48 h
Description: To obtain information about the mode of action of compounds 9c, 9f, 10b, and 10f, we repeated the cell viability assays on the metastatic cancer line WM266 in the presence of the Fe^2+ chelating agent deferoxamine (DFO). As mentioned above, Fe^2+ ions trigger endoperoxide bridge opening of the sesquiterpene counterpart by Fenton-like mechanisms, leading to the formation of carbon- and oxygen-centered radicals. Usually, this in cell formation of single-electron reactive species seems to be responsible for the biological activity of ART and its semisynthetic and hybrid derivatives. Sequestration of Fe^2 by DFO generally reduces the efficacy of the compounds studied.
DFO was used to study the mode of action of compounds 9c, 9f, 10b, and 10f on WM266 cell line. Twenty-four hours before treatment, cells were seeded in 96-well plates and incubated overnight. Then, cells were pre-treated with 20 μM of DFO for 1 h. After this time, two washes with PBS were performed, and, subsequently, fresh medium containing different doses of the opportune compound was added for 48h. The analyses of cell viability were performed at the end of treatment, and triplicates were made in all experiments.

WM115 = assay: MTT cell viability assay on primary melanoma cell line WM115; assay type: cell-based, human; details: for IC50: Homo sapiens, WM-115, 24 h, primary melanoma WM115, MTT, 24 h treatment, triplicates, read-out: IC50 (µM ± SD) WM115; for TSI WM115: tumor selectivity index = IC50 on C3PV / IC50 on WM115
Method: (§1) The primary human healthy fibroblast C3PV cell line was grown in a culture medium containing 50% Dulbecco Modified Medium (DMEM) and 50% Ham’s F10 supplemented with 10% Fetal Bovine Serum (FBS). […] To all growing media were added 1% Pen/Strep and 1% Glutamine.
(§2) To study the effect of artemisinin derivatives on cell viability, MTT assay was performed. Briefly, C3PV, WM115, and WM266 cell lines were seeded in 96-well plates (3000 cells/well in 100 μL of medium) 24 h before treatment and incubated overnight to allow for cell adherence. Afterward, the medium was replaced with a fresh one containing the appropriate dose of newly synthesized compounds (doses ranging from 0.01 to 1 μM were used for 24 h). The analyses of cell viability were performed at the end of the treatment. Triplicates were made in all experiments. After 24 h of treatment with newly synthesized compounds, the culture medium was replaced with a solution containing 0.5 mg/mL of MTT. After 3 h of incubation in an incubator, the medium was removed, and a lysis solution (10% SDS, 0.6% acetic acid in DMSO) was added to dissolve the formazan crystals. Optical density measurements were performed with a microplate reader EPOCH/2 (Biotek) with 630 nm (background) and a 570 nm filters.
(§3) The IC50 values were determined via non-linear regression, using the GraphPad Prism software package version 8 (GraphPad Software, San Diego, CA, USA). Results were expressed as means of IC50 values ± SD. The TSI values were calculated using the following formula: […]

C3PV = assay: MTT cell viability assay on normal fibroblasts C3PV; assay type: cell-based, human; details: Homo sapiens, C3PV, 24 h, 24 h treatment, triplicates, read-out: IC50 (µM ± SD) C3PV
Method: as §1
as §2, with “Afterward, the medium was replaced with a fresh one containing the appropriate dose of newly synthesized compounds (doses ranging from 0.01 to 1 μM were used for 24 h).” left out
as §3

WM266 [2] = assay: MTT cell viability assay on metastatic melanoma cell line WM266; assay type: cell-based, human; details: for IC50: Homo sapiens; for TSI WM266: tumor selectivity index = IC50 on C3PV / IC50 on WM266
Method: as §1, §2, §3

[3] = Stability by NMR analyses after heating; assay type: physicochemical; details: after heating at 45 and 100 °C for 8 and 2 h, respectively
Method: Based on cellular results, hybrids 9c, 9f, 10b, and 10f were selected for further studies. Their stability was evaluated by NMR analyses after heating them at 45 and 100 °C for 8 and 2 h, respectively (Supplementary Materials S1).

[4] = WM266, pre-treated with 20 μM DFO for 1 h, read-out: IC50 ± SD WM266 with DFO
[5] = WM266, without DFO, read-out: IC50 ± SD WM266 without DFO
[6] = WM266, 24 h, metastatic melanoma WM266, MTT, 24 h treatment, triplicates, read-out: IC50 (µM ± SD) WM266
[7] = WM266, reference hybrid on WM266, as printed in Table 2, read-out: IC50 ± SD R.H.

In the case of `Cn1nnc2c(C(N)=O)ncn2c1=O` [temozolomide], the IC50 (melanoma) is listed as under 50 µM.

Work on `CC(C)=CCCC(C)=CCOC1OC2OC3(C)CCC4C(C)CCC(C1C)C24OO3` (stereo not shown) [Hybrid 9f] yielded an IC50 (WM266 [1]; [4]) of 132.7 ± 0.4 µM, an IC50 (WM266 [1]; [5]) of 1.9 ± 0.5 µM and an IC50 (WM115) of 3 ± 0.4 µM. The “TSI WM115” value (WM115) was 29.1, the IC50 (C3PV) was 87.3 ± 2.5 µM and the IC50 (WM266 [2]; [6]) was 1.9 ± 0.5 µM. For the same molecule, the IC50 (WM266 [2]; [7]) was 1.9 ± 0.5 µM, the “TSI WM266” value (WM266 [2]) was 45.9 and the “decomposition by 1H NMR” value [3] was “less than 5%”.

`CC(C)=CCCC(C)CCO[C@H]1O[C@@H]2O[C@@]3(C)CC[C@H]4[C@H](C)CC[C@@H]([C@H]1C)[C@@]24OO3` (stereo partly shown) [Hybrid 9c] gave an IC50 (WM266 [1]; [4]) of 12.7 ± 0.3 µM, an IC50 (WM266 [1]; [5]) of 1.4 ± 0.56 µM and an IC50 (WM115) of 2.1 ± 0.3 µM. The “TSI WM115” value (WM115) was 173.4, the IC50 (C3PV) was 364 ± 7.9 µM and the IC50 (WM266 [2]; [6]) was 1.4 ± 0.56 µM. The IC50 (WM266 [2]; [7]) was 1.4 ± 0.56 µM, the “TSI WM266” value (WM266 [2]) was 260.1 and the “decomposition by 1H NMR” value [3] was “less than 5%”.

`C=C(C)C1CC=C(COC(=O)CCC(=O)OC2OC3OC4(C)CCC5C(C)CCC(C2C)C35OO4)CC1` (stereo not shown) [Hybrid 10b] gave an IC50 (WM266 [1]; [4]) of 0.31 ± 0.1 µM, an IC50 (WM266 [1]; [5]) of 0.02 ± 0.01 µM and an IC50 (WM115) of 0.03 ± 0.01 µM. The “TSI WM115” value (WM115) was 676.7, the IC50 (C3PV) was 20.3 ± 5.5 µM and the IC50 (WM266 [2]; [6]) was 0.02 ± 0.01 µM. The IC50 (WM266 [2]; [7]) was 0.02 ± 0.01 µM, the “TSI WM266” value (WM266 [2]) was 1015.0 and the “decomposition by 1H NMR” value [3] was “less than 5%”.
